# B1: ThFhb7: de-epoxidase from Thinopyrum ponticum; polypeptide having epoxy group-removing catalytic activity, amino acid sequence SEQ ID NO: 36, gene SEQ ID NO: 1 (protein, listed as Elytrigia ponticum)
# chain: MATSASTSTPIIPTAIAGAPPVAGTCCAVAPTLSALALAPLAVPTTTTTVLMPAISSVAASLAVPACALPAAGSAPATLPIIHAPATASLVGASPAIAATLGATTPASGAGALPPPGLLATAVGAAMPGLLIPLSGIAASPGLAATAAPASAVAAAPTAHVGLMVHGLPLAPATAAVTLAGPVAAAGLSSTAALGMVGGAAALMMGSLAAMLGALAALPALAASGPPLLGGAATTAAMIVGGTLAMMAATLPVSGTGGAAACHGAIPGGLHAALALTAGVL
# Tests used:
# [1] = system: ThFhb7; design: species or system Thinopyrum ponticum; settings: in vivo
# [2] = system: ThFhb7; assay type: cell-based, Thinopyrum ponticum
# [3] = system: pancreatic cancer cell line (PATU8988); experiment: Cytotoxicity assay by CCK8 method; settings: PATU8988, 48 h treatment, CCK-8, OD450
# [4] = system: human embryonic kidney cell 293-derived line (293T); experiment: Cytotoxicity assay by CCK8 method; settings: 48 h treatment, CCK-8, OD450
# [5] = system: normal human esophageal epithelial cells (HEECs); experiment: Cytotoxicity assay by CCK8 method; settings: 48 h treatment, CCK-8, OD450
# [6] = In vitro enzymatic reaction system of ThFhb7 polypeptide (DON + GSH, LC-HRMS); assay type: biochemical
# Method: The optimal conditions for the in vitro enzymatic reaction system of ThFhb7 polypeptide were established by gradient experiments of three different factors affecting the enzymatic reaction: • (1) the gradient of reaction enzyme amounts: 1 μg, 5 μg, 10 μg, 25 μg, and 50 μg; • (2) the pH gradient set with various buffers: ranging from 3.0 to 10.0, disodium hydrogen phosphate-citric acid buffer (pH=3.0, 4.0, 5.0), disodium hydrogen phosphate-potassium dihydrogen phosphate buffer (pH=6.0, 7.0), and Tris-phosphate buffer (pH=8.0, 9.0, 10.0); and • (3) the gradient of reaction temperatures: 4° C., 12° C., 15° C., 20° C., 25° C., 30° C., 37° C., 45° C., and 50° C.
# The reaction was performed in a phosphate buffer (PBS) (pH=7.0), at 25° C. for 12 h, and samples were taken at 0 h, 0.5 h, 1 h, 3 h, and 6 h respectively for LC-HRMS analysis; through the area results of first-level scanning of LC-HRMS, the changes in the amounts of the two substances, DON as the reaction substrate and the GSH adduct as the reaction product, were obtained with proceeding of reaction, so as to obtain the optimal enzyme amount for the reaction, as shown in FIGS. 14A and 14B. […]
# [7] = system: F. asiaticum; settings: in vivo
# [8] = system: F. pseudograminearum; settings: in vivo
# [9] = system: F. pseudograminearum; settings: in vivo; remark: listed apart in the source
# [10] = system: Pichia pastoris; experiment: DON tolerance of transgenic Pichia pastoris; assay type: cell-based; settings: YPDA media comprising 400 μM DON, 5 days
Molecule,amounts decreased as compared with the control [1],toxin significantly reduced as compared with wheat without ThFhb7 [1],DON-GSH adduct in DON-treated yeast expressing the active polypeptide [2],cell viability [3],cell viability [4],cell viability [5],"catalysis of vomitoxin into a glutathione adduct in vitro ([6]; DON 1 mg, GSH in PBS, 20° C., 24 h)","enzyme activity above 37° C. (DON-GSH cannot be detected) ([6]; above 37° C., pH 7.0, 25 μg enzyme)",diseased spot area on leaves vs KN199 [7],diseased spot area on leaves vs KN199 [8],death rate of transgenic plants vs wild type [9],degree of disease at the stem base vs control [9],growth viability vs transgenic yeast with the blank vector [10]
"CC(=O)O[C@@H]1C[C@]2(C)[C@@]3(CO)[C@H](O)C(=O)C(C)=C[C@H]3O[C@H]1[C@@]21CO1 [3-ADON, 3-acetyl-deoxynivalenol]",about ⅔,about ⅓,–,–,–,–,–,–,–,–,–,–,–
"CC1=C[C@H]2O[C@@H]3[C@H](O)C[C@](C)([C@@]2(CO)[C@H](O)C1=O)[C@]31CO1 [DON, deoxynivalenol]",about ⅔,about ⅓,detected,decreases sharply,decreases sharply,decreases sharply,–,–,–,–,–,–,–
B1,–,–,–,–,–,–,efficiently catalyze vomitoxin into a glutathione adduct,basically lost its activity,significantly reduced,significantly reduced,significantly lower,less severe,significantly higher
